Assay results as given in patent US4746736A, “Carbapenem antibiotics” (priority 1986, dated 1988).
Values after ≈ are worked out from the molar mass of the structure shown. Like-named read-outs stand apart in the source and are kept apart here.

How the values were obtained:
Assay type in all cases: cell-based
[1] = test system: S. aureus A-9606 (Pen-res.); assay: In vitro MIC by tube dilution, S. aureus A-9606 (Pen-res.); conditions: Staphylococcus aureus, S. aureus A-9606 (Pen-res); read-out: MIC
P. morganii A15153 = assay: In vitro MIC by tube dilution, P. morganii (M. morganii) A15153; conditions: Morganella morganii, read-out: MIC
S. marcescens A20019 = assay: In vitro MIC by tube dilution, S. marcescens A20019; conditions: Serratia marcescens, read-out: MIC
S. pneumoniae A-9585 = assay: In vitro MIC by tube dilution, S. pneumoniae A-9585; conditions: Streptococcus pneumoniae, A9585, S. pneumoniae A-9585; read-out: MIC
S. pyogenes A9604 = assay: In vitro MIC by tube dilution, S. pyogenes A9604; conditions: Streptococcus pyogenes, A9604, S. pyogenes A-9604; read-out: MIC
S. aureus A-9537 = assay: In vitro MIC by tube dilution, S. aureus A-9537; conditions: Staphylococcus aureus, read-out: MIC
E. cloacae A-9659 = assay: In vitro MIC by tube dilution, E. cloacae A-9659; conditions: Enterobacter cloacae, A9659, E. cloacae A-9659; read-out: MIC
K. pneumoniae A-9664 = assay: In vitro MIC by tube dilution, K. pneumoniae A-9664; conditions: Klebsiella pneumoniae, A9664, read-out: MIC
E. coli A20341-1 = assay: In vitro MIC by tube dilution, E. coli A20341-1; conditions: Escherichia coli, A203411, read-out: MIC
P. aeruginosa A-9843A = assay: In vitro MIC by tube dilution, P. aeruginosa A-9843A; conditions: Pseudomonas aeruginosa, A9843A, P. aeruginosa A-9843a; read-out: MIC
E. coli A15119 = assay: In vitro MIC by tube dilution, E. coli A15119; conditions: Escherichia coli, read-out: MIC
E. cloacae A-9656 = assay: In vitro MIC by tube dilution, E. cloacae A-9656; conditions: Enterobacter cloacae, A9656, E. cloacae A-9656; read-out: MIC
P. mirabilis A-9900 = assay: In vitro MIC by tube dilution, P. mirabilis A-9900; conditions: Proteus mirabilis, A9900, P. mirabilis A-9900; read-out: MIC
K. pneumoniae A20468 = assay: In vitro MIC by tube dilution, K. pneumoniae A20468; conditions: Klebsiella pneumoniae, read-out: MIC
P. rettgeri A22424 = assay: In vitro MIC by tube dilution, P. rettgeri A22424; conditions: Providencia rettgeri, A22424, P. rettgeri A22424; read-out: MIC
P. aeruginosa A21213 = assay: In vitro MIC by tube dilution, P. aeruginosa A21213; conditions: Pseudomonas aeruginosa, A21213, P. aeruginosa A21213; read-out: MIC
S. faecalis A20688 = assay: In vitro MIC by tube dilution, S. faecalis A20688; conditions: Enterococcus faecalis, A20688, S. faecalis A20688; read-out: MIC
[2] = A9537, S. aureus A-9537 +50% serum
[3] = A9537, S. aureus A-9537, no serum

| Structure (SMILES) | MIC [1] | MIC (P. morganii A15153; A15153, M. morganii A15153) | MIC (S. marcescens A20019) | MIC (S. pneumoniae A-9585) | MIC (S. pyogenes A9604) | MIC (S. aureus A-9537; [2]) | MIC (S. aureus A-9537; [3]) | MIC (E. cloacae A-9659) | MIC (K. pneumoniae A-9664) | MIC (E. coli A20341-1) | MIC (P. aeruginosa A-9843A) | MIC (E. coli A15119; E. coli A15119) | MIC (E. cloacae A-9656) | MIC (P. mirabilis A-9900) | MIC (K. pneumoniae A20468; A20468, K. pneumoniae A20468) | MIC (E. coli A15119; A15119, E. coli A15119) | MIC (P. rettgeri A22424) | also measured |
| --- | --- | --- | --- | --- | --- | --- | --- | --- | --- | --- | --- | --- | --- | --- | --- | --- | --- | --- |
| C[C@@H](O)[C@H]1C(=O)N2C(C(=O)[O-])=C(SCc3ccc[n+](C)c3)C[C@H]12 [Example 3, 3-(N-Methylpyridine-3-yl-methanethio)-6α-[1-(R)-hydroxyethyl]-7-oxo-1-azabicyclo(3.2.0)hept-2-ene-2-carboxylate] | 0.016 µg/mL (≈ 0.0478 µM) | 0.13 µg/mL (≈ 0.389 µM) | 0.016 µg/mL (≈ 0.0478 µM) | 0.002 µg/mL (≈ 0.00598 µM) | 0.002 µg/mL (≈ 0.00598 µM) | 0.016 µg/mL (≈ 0.0478 µM) | 0.016 µg/mL (≈ 0.0478 µM) | 0.13 µg/mL (≈ 0.389 µM) | 0.06 µg/mL (≈ 0.179 µM) | 0.016 µg/mL (≈ 0.0478 µM) | 2 µg/mL (≈ 5.98 µM) | 0.03 µg/mL (≈ 0.0897 µM) | 0.13 µg/mL (≈ 0.389 µM) | 0.13 µg/mL (≈ 0.389 µM) | 0.06 µg/mL (≈ 0.179 µM) | – | – | – |
| C[C@@H](O)[C@H]1C(=O)N2C(C(=O)[O-])=C(SCc3cccc[n+]3C)C[C@H]12 [Example 4, 3-(N-Methylpyridine-2-yl-methanethio)-6α-[1-(R)-hydroxyethyl]-7-oxo-1-azabicyclo(3.2.0)hept-2-ene-2-carboxylate] | 0.016 µg/mL (≈ 0.0478 µM) | 0.016 µg/mL (≈ 0.0478 µM) | – | 0.002 µg/mL (≈ 0.00598 µM) | – | – | 0.008 µg/mL (≈ 0.0239 µM) | – | – | 0.016 µg/mL (≈ 0.0478 µM) | 2 µg/mL (≈ 5.98 µM) | – | – | – | – | 0.016 µg/mL (≈ 0.0478 µM) | – | – |
| Cc1scc(CSC2=C(C(=O)[O-])N3C(=O)[C@H]([C@@H](C)O)[C@H]3C2)[n+]1C [Example 8, 3-(2-Methyl-N-methylthiazole-4-yl-methanethio)-6α-[1-(R)-hydroxyethyl]-7-oxo-1-azabicyclo(3.2.0)hept-ene-2-carboxylate] | 0.03 µg/mL (≈ 0.0846 µM) | – | 0.06 µg/mL (≈ 0.169 µM) | 0.002 µg/mL (≈ 0.00564 µM) | 0.002 µg/mL (≈ 0.00564 µM) | 0.03 µg/mL (≈ 0.0846 µM) | 0.008 µg/mL (≈ 0.0226 µM) | 0.13 µg/mL (≈ 0.367 µM) | 0.03 µg/mL (≈ 0.0846 µM) | 0.03 µg/mL (≈ 0.0846 µM) | 1 µg/mL (≈ 2.82 µM) | – | 0.06 µg/mL (≈ 0.169 µM) | 0.13 µg/mL (≈ 0.367 µM) | 0.13 µg/mL (≈ 0.367 µM) | 0.016 µg/mL (≈ 0.0451 µM) | 0.13 µg/mL (≈ 0.367 µM) | – |
| Cc1sc(CSC2=C(C(=O)[O-])N3C(=O)[C@H]([C@@H](C)O)[C@H]3C2)c(C)[n+]1C [Example 10, 3-(2,3,4,-Trimethylthiazole-5-yl-methanethio)-6α[1-(R)-hydroxyethyl]-7-oxo-1-azabicyclo(3.2.0)hept-2-ene-2-carboxylate] | 0.008 µg/mL (≈ 0.0217 µM) | – | – | – | – | – | 0.008 µg/mL (≈ 0.0217 µM) | 0.13 µg/mL (≈ 0.353 µM) | – | 0.008 µg/mL (≈ 0.0217 µM) | 32 µg/mL (≈ 86.8 µM) | – | 0.13 µg/mL (≈ 0.353 µM) | 0.13 µg/mL (≈ 0.353 µM) | 0.13 µg/mL (≈ 0.353 µM) | 0.016 µg/mL (≈ 0.0434 µM) | 0.13 µg/mL (≈ 0.353 µM) | – |
| C[C@@H](O)[C@H]1C(=O)N2C(C(=O)[O-])=C(SCc3scc[n+]3C)C[C@H]12 [Example 11, 3-[2-(N-Methylthiazolium)methylthio]-6α-[1-(R)-hydroxyethyl]-7-oxo-1-azabicyclo(3.2.0)hept-2-ene-2-carboxylate] | 0.016 µg/mL (≈ 0.047 µM) | 0.06 µg/mL (≈ 0.176 µM) | 0.06 µg/mL (≈ 0.176 µM) | 0.002 µg/mL (≈ 0.00587 µM) | 0.002 µg/mL (≈ 0.00587 µM) | 0.016 µg/mL (≈ 0.047 µM) | 0.004 µg/mL (≈ 0.0117 µM) | 0.06 µg/mL (≈ 0.176 µM) | 0.03 µg/mL (≈ 0.0881 µM) | 0.03 µg/mL (≈ 0.0881 µM) | – | – | 0.13 µg/mL (≈ 0.382 µM) | 0.03 µg/mL (≈ 0.0881 µM) | 0.13 µg/mL (≈ 0.382 µM) | 0.016 µg/mL (≈ 0.047 µM) | 0.13 µg/mL (≈ 0.382 µM) | MIC (P. aeruginosa A21213): 0.13 µg/mL (≈ 0.382 µM) |
| C[C@@H](O)[C@H]1C(=O)N2C(C(=O)[O-])=C(SCc3n(Cc4ccccc4)cc[n+]3C)C[C@H]12 [Example 13, 3-(N-Methyl-N'-benzylimidazole-2-yl-methanethio)-6α-[1-(R)-hydroxyethyl]-7-oxo-1-azabicyclo(3.2.0)hept-2-ene-2-carboxylate] | 0.008 µg/mL (≈ 0.0193 µM) | 0.016 µg/mL (≈ 0.0387 µM) | 0.016 µg/mL (≈ 0.0387 µM) | – | – | 0.016 µg/mL (≈ 0.0387 µM) | 0.008 µg/mL (≈ 0.0193 µM) | 0.06 µg/mL (≈ 0.145 µM) | 0.03 µg/mL (≈ 0.0726 µM) | 0.008 µg/mL (≈ 0.0193 µM) | 32 µg/mL (≈ 77.4 µM) | 0.004 µg/mL (≈ 0.00967 µM) | 0.03 µg/mL (≈ 0.0726 µM) | 0.016 µg/mL (≈ 0.0387 µM) | 0.13 µg/mL (≈ 0.314 µM) | – | – | MIC (S. faecalis A20688): 0.13 µg/mL (≈ 0.314 µM) |
| Cc1c(CSC2=C(C(=O)[O-])N3C(=O)[C@H]([C@@H](C)O)[C@H]3C2)ccc[n+]1C [Example 14, 3-(2-Methyl-N-methylpyridine-3-yl-methanethio)-6α-[1-(R)-hydroxyethyl]-7-oxo-1-azabicyclo(3.2.0)hept-2-ene-2-carboxylate] | 0.016 µg/mL (≈ 0.0459 µM) | – | 0.016 µg/mL (≈ 0.0459 µM) | – | – | 0.03 µg/mL (≈ 0.0861 µM) | 0.008 µg/mL (≈ 0.023 µM) | 0.03 µg/mL (≈ 0.0861 µM) | 0.03 µg/mL (≈ 0.0861 µM) | 0.008 µg/mL (≈ 0.023 µM) | 8 µg/mL (≈ 23 µM) | 0.008 µg/mL (≈ 0.023 µM) | 0.03 µg/mL (≈ 0.0861 µM) | 0.016 µg/mL (≈ 0.0459 µM) | – | – | 0.06 µg/mL (≈ 0.172 µM) | MIC (P. morganii A15153; M. morganii A15153): 0.03 µg/mL (≈ 0.0861 µM); MIC (S. faecalis A20688): 0.13 µg/mL (≈ 0.373 µM); MIC (K. pneumoniae A20468; K. pneumoniae A20468): 0.03 µg/mL (≈ 0.0861 µM) |
| C[C@@H](O)[C@H]1C(=O)N2C(C(=O)[O-])=C(SCc3cs[n+](C)n3)C[C@H]12 [Example 16, (5R,6S) 6-(1R-hydroxyethyl)-3-(2-methyl-1,2,3-thiadiazolium-4-ylmethylthio)-7-oxo-1-azabicyclo[3.2.0]hept-2-ene-2-carboxylate] | 0.016 µg/mL (≈ 0.0469 µM) | – | 0.06 µg/mL (≈ 0.176 µM) | 0.002 µg/mL (≈ 0.00586 µM) | 0.002 µg/mL (≈ 0.00586 µM) | 0.03 µg/mL (≈ 0.0879 µM) | 0.008 µg/mL (≈ 0.0234 µM) | 0.06 µg/mL (≈ 0.176 µM) | 0.06 µg/mL (≈ 0.176 µM) | 0.016 µg/mL (≈ 0.0469 µM) | 0.25 µg/mL (≈ 0.732 µM) | – | 0.06 µg/mL (≈ 0.176 µM) | 0.06 µg/mL (≈ 0.176 µM) | 0.06 µg/mL (≈ 0.176 µM) | 0.016 µg/mL (≈ 0.0469 µM) | – | – |
| C[C@@H](O)[C@H]1C(=O)N2C(C(=O)[O-])=C(SCc3cn(C)n[n+]3CC(=O)O)C[C@H]12 [Example 17, Potassium 3-[5-(1-carboxylatomethyl-3-methyl-1,2,3-triazolium)-methanethio]-6α-[1-(R)-hydroxyethyl]-7-oxo-1-azabicyclo[3.2.0]hept-2-ene-2-carboxylate] | – | – | 0.13 µg/mL | 0.016 µg/mL | 0.016 µg/mL | – | – | – | 0.13 µg/mL | – | > 63 µg/mL | – | – | 0.13 µg/mL | – | – | – | – |
| C[C@@H](O)[C@H]1C(=O)N2C(C(=O)[O-])=C(SCc3n[n+](C)nn3C)C[C@H]12 [Example 20, (1'R,5R,6S) 3-[(1,3-dimethyl-5-tetrazolium)-methylthio]-6-(1-hydroxyethyl)-7-oxo-1-azabicyclo[3.2.0]hept-2-ene-2-carboxylate] | > 125 µg/mL | 8 µg/mL (≈ 23.6 µM) | – | 0.06 µg/mL (≈ 0.177 µM) | 0.13 µg/mL (≈ 0.383 µM) | 2 µg/mL (≈ 5.89 µM) | – | 8 µg/mL (≈ 23.6 µM) | – | – | 32 µg/mL (≈ 94.3 µM) | – | – | – | – | – | 8 µg/mL (≈ 23.6 µM) | – |
